The source of these data is ChEMBL document CHEMBL4725253, “Discovery of quinoline-based irreversible BTK inhibitors” (Bioorg Med Chem Lett, 2020).

Where only a bound is given, the exact number is not on record here.

Series [1] concerns the target T1, Tyrosine-protein kinase BTK (Homo sapiens, UniProt Q06187). In words: Inhibition of human recombinant full length N-terminal His6-tagged BTK expressed in baculovirus infected Sf9 cells using fluorescein labeled Blk/Lyntide substrate preincubated with enzyme for 60 mins followed by further incubation with substrate and ATP for 120 mins by IMAP assay.
The target in series [2] is Epidermal growth factor receptor (Homo sapiens, UniProt P00533). As to the kind of experiment: Inhibition of EGFR (unknown origin) expressed in baculovirus system using fluorescein labeled PDGFR-tide substrate peptide preincubated for 60 mins followed by ATP addition and measured after 60 mins by IMAP assay.
A short description of series [3]: Inhibition of anti-human alphaIgM-stimulated MIP1beta production in human Ramos B cells preincubated for 1 hr followed by anti-human IgM stimulation for 6 hrs by ELISA. The format is functional, cell-based.
Series [4] deals with T1, Tyrosine-protein kinase BTK. As to the kind of experiment: Covalent inhibition of His-tagged human full length recombinant BTK expressed in baculovirus expression system incubated for 5 to 120 mins by Lanthascreen TR-FRET assay. The settings on record: time min 5-120, TDE = time-dependent effect.
Another series is filed under the species Homo sapiens. As to the kind of experiment: Selectivity index, ratio of IC50 for EGFR (unknown origin) expressed in baculovirus system to IC50 for human recombinant full length N-terminal His6-tagged BTK expressed in baculovirus infected Sf9 cells.
A short description of series [5]: Solubility of compound by turbidimetric assay. The format is physicochemical.
For series [6], the target named is Tyrosine-protein kinase Blk (Homo sapiens, UniProt P51451). In words: Inhibition of recombinant full length human His-tagged BLK cytoplasmic domain expressed in baculovirus expression system using tyrosine-1 peptide as substrate preincubated for 1 hr in presence of ATP by Z'-LYTE assay.
A short description of series [7]: In vivo inhibition of CD69 expression in po dosed mouse. The class given is functional.
Another series concerns Blood. In words: Inhibition of mouse anti-human anti-IgD-stimulated CD69 cell surface expression in human whole blood preincubated for 2 hrs followed by anti-human anti-IgD stimulation for 18 hrs by flow cytometric analysis. The format is functional, tissue-based.
Series [8] in a line: Inhibition of goat anti-human IgM F(ab')-stimulated CD69 cell surface expression in human PBMC preincubated for 2 hrs followed by anti-human IgM stimulation for 18 hrs by flow cytometric analysis. The format is functional, tissue-based.

T1 sequence (Q06187 whole entry): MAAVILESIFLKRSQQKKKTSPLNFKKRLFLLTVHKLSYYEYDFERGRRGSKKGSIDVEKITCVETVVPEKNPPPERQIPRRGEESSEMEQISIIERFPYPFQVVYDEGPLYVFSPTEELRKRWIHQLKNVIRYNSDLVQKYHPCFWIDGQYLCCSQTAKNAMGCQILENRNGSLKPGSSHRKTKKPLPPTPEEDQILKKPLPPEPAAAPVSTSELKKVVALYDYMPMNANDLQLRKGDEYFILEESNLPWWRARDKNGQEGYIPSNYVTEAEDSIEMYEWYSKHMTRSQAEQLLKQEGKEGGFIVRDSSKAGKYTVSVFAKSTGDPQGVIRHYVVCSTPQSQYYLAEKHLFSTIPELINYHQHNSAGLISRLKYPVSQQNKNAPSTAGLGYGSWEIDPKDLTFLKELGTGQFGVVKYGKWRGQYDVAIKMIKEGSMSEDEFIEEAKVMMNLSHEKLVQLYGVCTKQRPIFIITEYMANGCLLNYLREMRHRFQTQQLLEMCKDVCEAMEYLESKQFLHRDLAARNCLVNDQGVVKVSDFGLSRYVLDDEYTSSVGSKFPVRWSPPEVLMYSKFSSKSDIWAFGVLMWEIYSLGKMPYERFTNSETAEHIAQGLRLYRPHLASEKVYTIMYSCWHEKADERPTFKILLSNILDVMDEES
Sequence of Epidermal growth factor receptor (P00533 whole entry): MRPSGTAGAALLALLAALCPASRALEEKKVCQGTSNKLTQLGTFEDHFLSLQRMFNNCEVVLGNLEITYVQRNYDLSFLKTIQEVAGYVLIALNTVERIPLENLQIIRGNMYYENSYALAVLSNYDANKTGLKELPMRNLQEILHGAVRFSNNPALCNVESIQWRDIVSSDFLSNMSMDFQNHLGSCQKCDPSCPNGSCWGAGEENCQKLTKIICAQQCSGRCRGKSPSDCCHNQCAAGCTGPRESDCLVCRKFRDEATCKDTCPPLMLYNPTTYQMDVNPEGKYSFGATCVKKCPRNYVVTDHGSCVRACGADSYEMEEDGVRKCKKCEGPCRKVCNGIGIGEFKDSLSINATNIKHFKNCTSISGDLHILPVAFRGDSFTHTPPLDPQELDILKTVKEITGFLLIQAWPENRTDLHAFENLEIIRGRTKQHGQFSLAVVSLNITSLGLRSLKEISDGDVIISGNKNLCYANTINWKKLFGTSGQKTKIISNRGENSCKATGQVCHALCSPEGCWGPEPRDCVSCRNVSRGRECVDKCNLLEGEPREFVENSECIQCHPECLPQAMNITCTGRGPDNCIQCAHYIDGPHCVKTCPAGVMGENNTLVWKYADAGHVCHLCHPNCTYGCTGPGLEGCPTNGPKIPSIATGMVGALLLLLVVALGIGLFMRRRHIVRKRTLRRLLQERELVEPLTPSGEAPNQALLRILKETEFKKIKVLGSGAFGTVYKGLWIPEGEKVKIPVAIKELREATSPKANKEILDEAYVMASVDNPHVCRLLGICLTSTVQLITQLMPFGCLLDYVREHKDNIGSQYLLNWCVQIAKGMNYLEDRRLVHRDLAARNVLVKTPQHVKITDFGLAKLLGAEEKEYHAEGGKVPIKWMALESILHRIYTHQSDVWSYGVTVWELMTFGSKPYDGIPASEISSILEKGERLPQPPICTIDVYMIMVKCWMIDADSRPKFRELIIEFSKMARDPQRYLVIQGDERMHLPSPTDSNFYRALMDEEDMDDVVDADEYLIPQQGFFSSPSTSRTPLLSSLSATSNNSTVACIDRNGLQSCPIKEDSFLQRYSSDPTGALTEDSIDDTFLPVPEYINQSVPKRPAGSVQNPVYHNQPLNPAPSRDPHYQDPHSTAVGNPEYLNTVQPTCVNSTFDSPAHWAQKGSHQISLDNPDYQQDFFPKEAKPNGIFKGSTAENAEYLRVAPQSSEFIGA
Sequence of Tyrosine-protein kinase Blk (P51451 whole entry, the tested form may be a part): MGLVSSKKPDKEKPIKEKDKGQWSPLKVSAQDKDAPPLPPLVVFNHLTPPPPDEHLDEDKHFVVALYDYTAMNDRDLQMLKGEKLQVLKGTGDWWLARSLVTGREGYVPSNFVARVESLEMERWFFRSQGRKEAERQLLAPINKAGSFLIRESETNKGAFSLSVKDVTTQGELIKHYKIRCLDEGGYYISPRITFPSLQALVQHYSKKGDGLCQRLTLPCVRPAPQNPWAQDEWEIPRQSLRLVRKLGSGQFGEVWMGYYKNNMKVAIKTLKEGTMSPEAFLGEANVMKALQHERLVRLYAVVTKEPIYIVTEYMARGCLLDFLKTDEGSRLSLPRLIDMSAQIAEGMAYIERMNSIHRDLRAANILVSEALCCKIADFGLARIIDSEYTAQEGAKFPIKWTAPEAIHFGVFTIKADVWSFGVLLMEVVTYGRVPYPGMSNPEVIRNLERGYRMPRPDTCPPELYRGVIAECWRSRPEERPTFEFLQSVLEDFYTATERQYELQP

With `CC#CC(=O)Nc1ccc2nccc(Oc3ccc(C(=O)Nc4ccccn4)cc3)c2c1`, the concentration for half-maximal inhibition (IC50) in series [1] was 4.7 nM; in [2], more than 1000 nM. The concentration giving a half-maximal response (EC50) in series [3] was 152 nM.

As to `C=CC(=O)Nc1ccc2ncnc(Oc3ccc(C(=O)Nc4ccccn4)cc3)c2c1`, the EC50 in series [1] came to 7.2 nM. In [2], this compound yielded an IC50 of 11 nM. Further, the inhibition result in series [4] is “Tde”.

`O=C(C#CCO)Nc1ccc2nccc(Oc3ccc(C(=O)Nc4ccccn4)cc3)c2c1`: the IC50 in series [1] stood at 0.33 nM; in series [2], 6.3 nM. Also, the Ratio IC50 in the series listed under Homo sapiens is 19. This compound also came in with an EC50 in series [3] of 28 nM. This compound also registered a kinetic solubility in series [5] of less than 1 µM.

Regarding `CC#CC(=O)N1CCC[C@H]1c1nc(-c2ccc(C(=O)Nc3ccccn3)cc2)c2c(N)nccn12` [ACALABRUTINIB], the 50% inhibitory concentration (IC50) in series [6] is more than 1000 nM. Besides, in series [7], the 50% effective dose (ED50) was found to be 1.3 mg/kg.

Take `C=CC(=O)Nc1ccc2nccc(Oc3ccc(C(=O)Nc4ccccn4)cc3)c2c1`: the values for the half-maximal inhibitory concentration (IC50) in [1] and in series [2] were 3.5 nM and 159 nM, respectively. In series [3], the midpoint of the response, the EC50, lay at 112 nM.

As to `CN(C)C/C=C/C(=O)Nc1ccc2nccc(Oc3ccc(C(=O)Nc4ccccn4)cc3)c2c1`, the IC50 in series [1] was 7.2 nM; in series [2], 275 nM. In addition, the concentration for a half-maximal effect (EC50) in series [3] worked out at 89 nM.

Regarding `CCN1CCN(CC#CC(=O)Nc2ccc3nccc(Oc4ccc(C(=O)Nc5ccccn5)cc4)c3c2)CC1`, the IC50 was found to be 2.5 nM in series [1] and 55 nM in series [2]. Moreover, the Ratio IC50 in the series filed under Homo sapiens amounted to 22. Further, the half-maximal effective concentration (EC50) in series [3] was determined as 18 nM.

Take `CC#CC(=O)Nc1cc2c(Oc3ccc(C(=O)Nc4ccccn4)cc3)ccnc2cc1OC1CCOCC1`: the IC50 in series [1] is 3.8 nM; in [2], more than 1000 nM. In [3], this compound showed an EC50 of 152 nM.

On to `O=C(C#CCCN1CCOCC1)Nc1ccc2nccc(Oc3ccc(C(=O)Nc4ccccn4)cc3)c2c1`, for which the values for the IC50 in series [1] and in series [2] were 0.8 nM and 81 nM, respectively. Also, the EC50 in series [3] stood at 25 nM.

For the compound `COCC#CC(=O)Nc1ccc2nccc(Oc3ccc(C(=O)Nc4ccccn4)cc3)c2c1`, the IC50 is 0.15 nM in series [1] and 16 nM in [2]. In addition, the EC50 in [3] was found to be 7 nM.

In the case of `COCC#CC(=O)Nc1cc2c(Oc3ccc(C(=O)Nc4ccccn4)cc3)ccnc2cc1OC`, the IC50 in [1] was 0.96 nM; in series [2] it was 12 nM. This compound also had an EC50 in series [3] of 12 nM.

For `CC#CC(=O)Nc1cc2c(Oc3ccc(C(=O)Nc4ccccn4)cc3)ccnc2cc1OCCCN1CCN(C)CC1`, the IC50 in series [1] turned out to be 1 nM; in [2], 233 nM. Also, the EC50 came to 35 nM with Blood, 2.1 nM in [8] and 3.9 nM in series [3].

As for `CC#CC(=O)Nc1cc2c(Oc3ccc(C(=O)Nc4ccccn4)cc3)ccnc2cc1OC`, the IC50 in series [1] is 1.5 nM; in series [2], more than 1000 nM. In addition, the concentration giving a half-maximal response (EC50) amounted to 66 nM in the series on Blood, 9.7 nM in series [8] and 29 nM in series [3].

With `C=CC(=O)Nc1ccc2ncnc(Nc3ccc(C(=O)Nc4ccccn4)cc3)c2c1`, the EC50 in series [1] was 18 nM. For the same compound, inhibition in [2] was half-maximal at 3.8 nM (IC50).

Regarding `O=C(C#CCN1CCOCC1)Nc1ccc2nccc(Oc3ccc(C(=O)Nc4ccccn4)cc3)c2c1`, the half-inhibitory concentration (IC50) amounted to 0.26 nM in series [1] and 13 nM in [2]. In series [3], the EC50 was 12 nM.

On to `COc1cc2nccc(Oc3ccc(C(=O)Nc4ccccn4)cc3)c2cc1NC(=O)C#CCN1CCOCC1`, for which the 50% inhibitory concentration (IC50) came out at 0.47 nM in [1] and 24 nM in series [2]. Also, the 50% effective concentration (EC50) in the series on Blood turned out to be 12 nM; in series [8], 1.5 nM; in series [3], 2.1 nM.
